Reference: patent US9663528B2, “Substituted 1,2,3,4,6,8,12,12a-octahydro-1,4-methanodipyrido[1,2-a:1',2'-d]pyrazines and methods for treating viral infections” (priority 2012, dated 2017)
Where two headings read alike, the source gives them in different places.

Key:
OCT2 = OCT2 (Homo sapiens (Human), UniProt O15244); assay: OCT2 inhibition assay (14C-TEA uptake, OCT2-transfected MDCKII cells); assay type: cell-based
Experimental: On assay day, cells were trypsinized and resuspended in Krebs-Henseleit Buffer (KHB), pH 7.4 at […]. Cells were preincubated for 15 min in assay plate before addition of test compound or substrate. Test compounds were serially diluted in DMSO and then spiked (2 μL) into in 0.4 mL KHB buffer containing wild-type or OCT2-transfected cells and incubated for 10 minutes. Assay was initiated with the addition of 0.1 mL of 100 μM ^14C-TEA in KHB buffer (20 μM final concentration after mixing). The concentration of TEA is based on the Km. After 10 minutes of incubation, the assay mixture was quenched with addition of 0.5 mL of ice-cold 1×PBS buffer. Samples were then centrifuged at 1000 rpm for 5 min and supernatants were removed. Wash steps were repeated four times with ice-cold PBS. Finally, the cell pellets were lysed with 0.2N NaOH and let sit at room temperature for at least 30 min to ensure complete lysis. Samples were then counted on liquid scintillation counter and dpm counts were used to perform the following calculations.

[1] = Pharmacokinetic analysis following oral administration to beagle dogs; assay type: in vivo; settings: 1 mg/kg
Experimental: (§1) Pharmacokinetic analysis was performed on various test compounds following intravenous or oral administration to beagle dogs.
(§2) For pharmacokinetic analysis of intravenously administered compounds, the test compounds were formulated in 5% Ethanol, 55% PEG 300, and 40% water at 0.1 mg/mL for IV infusion. For pharmacokinetic analysis of orally administered compounds, the test compounds were formulated as an aqueous suspension in 0.1% Tween 20, 0.5% HPMC LV 100 in Di Water at 1 mg/kg.
(§3) Each dosing group consisted of 3 male, non-naïve purebred beagle dogs. At dosing, the animals weighed between 10 to 13 kg. The animals were fasted overnight prior to dose administration and up to 4 hr after dosing. For studies of intravenous administration, the test article was administered to the animals by intravenous infusion over 30 min. The rate of infusion was adjusted according to the body weight of each animal to deliver a dose of 0.5 mg/kg. For studies of oral administration, the test article was administered according to the body weight of each animal to deliver a dose of 1 mg/kg.
For pharmacokinetic analysis of orally administered compounds, serial venous blood samples (approximately 0.3 mL each) were taken from each animal at time points of 0, 0.25, 0.50, 1.0, 2.0, 4.0, 6.0, 8.0, 12.0 and 24.0 hours after dosing. Blood samples were collected, prepared and analyzed in a similar way to the intravenous studies described above. Non-compartmental pharmacokinetic analysis was performed on the plasma concentration-time data. The resulting data are shown in the last three columns of Table 4. In Table 4, F (%) refers to oral bioavailability. Cmax refers to the peak plasma concentration of the compound after administration. AUC refers to area under the curve and is a measure of total plasma exposure of the indicated compound.

[2] = Pharmacokinetic analysis following intravenous administration to beagle dogs; assay type: in vivo; settings: male, dog, 0.5 mg/kg; for Vd: read-out: Vss
Experimental: as §1, §2, §3
For pharmacokinetic analysis of intravenously administered compounds, serial venous blood samples (approximately 1 mL each) were taken from each animal at 0, 0.250, 0.483, 0.583, 0.750, 1.00, 1.50, 2.00, 4.00, 8.00, 12.0, and 24.0 hours after dosing. The blood samples were collected into Vacutainer™ tubes containing EDTA-K2 as the anti-coagulant and were immediately placed on wet ice pending centrifugation for plasma. An LC/MS/MS method was used to measure the concentration of the test compound in plasma. An aliquot of 100 μL of each plasma sample was added to a clean 96 well plate, and 400 μL of cold acetonitrile/internal standard solution (ACN)/(ISTD) was added. After protein precipitation, an aliquot of 110 μL of the supernatant was transferred to a clean 96-well plate and diluted with 300 μL of water. An aliquot of 25 μL of the above solution was injected into a TSQ Quantum Ultra LC/MS/MS system utilizing a Hypersil Gold C18 HPLC column (50×3.0 mm, 5 μm; Thermo-Hypersil Part #25105-053030). An Agilent 1200 series binary pump (P/N G1312A Bin Pump) was used for elution and separation, and an HTS Pal autosampler (LEAP Technologies, Carrboro, N.C.) was used for sample injection. A TSQ Quantum Ultra triple quadrupole mass spectrometer was utilized in selective reaction monitoring mode (Thermo Finnigan, San Jose, Calif.). Liquid chromatography was performed using two mobile phases: mobile phase A contained 1% acetonitrile in 2.5 mM ammonium formate aqueous solution with pH of 3.0, and mobile phase B contained 90% acetonitrile in 10 mM ammonium formate with pH of 4.6. Non-compartmental pharmacokinetic analysis was performed on the plasma concentration-time data. The resulting data are shown in the first three columns of Table 4. In Table 4, CL refers to clearance, which characterizes the rate at which drug is removed from plasma. The lower the clearance of a drug is, the longer the elimination half-life is in the body. Vss refers to the steady state volume of distribution and indicates how well a drug is distributed into the tissues. The larger the Vss is, the longer the elimination half-life is in the body. MRT refers to mean residence time, which is a measure of the average time molecules exist in the body.

PXR = PXR (Homo sapiens (Human), UniProt O75469); assay: Human PXR activation assay (luciferase reporter gene assay, DPX2 cells); assay type: cell-based; settings: human
Chain of PXR (O75469 whole entry): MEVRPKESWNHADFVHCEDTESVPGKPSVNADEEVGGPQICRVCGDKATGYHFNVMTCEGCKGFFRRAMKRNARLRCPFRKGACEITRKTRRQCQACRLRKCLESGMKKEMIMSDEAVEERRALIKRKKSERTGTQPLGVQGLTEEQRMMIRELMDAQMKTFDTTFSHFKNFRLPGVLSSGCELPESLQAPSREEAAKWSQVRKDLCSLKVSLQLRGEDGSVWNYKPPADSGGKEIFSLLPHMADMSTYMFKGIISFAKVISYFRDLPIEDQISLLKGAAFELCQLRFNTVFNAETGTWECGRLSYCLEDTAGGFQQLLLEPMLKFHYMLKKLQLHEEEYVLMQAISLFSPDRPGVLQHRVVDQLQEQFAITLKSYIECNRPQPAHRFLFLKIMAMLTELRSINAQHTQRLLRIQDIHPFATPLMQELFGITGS
Experimental: A stably transformed tumor cell line (DPX2) was plated on 96-well microtiter plates. DPX2 cells harbor the human PXR gene (NR112) and a luciferase reporter gene linked to two promoters identified in the human CYP3A4 gene, namely XREM and PXRE. […] The number of viable cells was determined and the reporter gene activity was assessed. Positive control: […]

in vitro = settings: human
[3] = OCT2 mediated uptake of 14C-TEA (20 μM), MDCKII cells, read-out: IC50
[4] = plasma, beagle dogs, IV infusion over 30 min
[5] = beagle dogs, oral, aqueous suspension
[6] = male, dog, plasma, beagle dogs, oral, aqueous suspension, read-out: AUC (μM*h) aqueous suspension
[7] = male, dog, plasma, beagle dogs, oral, aqueous suspension, read-out: Cmax (μM) aqueous suspension
[8] = plasma, beagle dogs, IV infusion over 30 min, read-out: CL (converted)
[9] = plasma, beagle dogs, IV infusion over 30 min, read-out: MRT
[10] = 15 μM, relative to maximum fold induction by 10 or 20 μM rifampicin, DPX2 cells, 24 hours, read-out: % Emax at 15 μM
[11] = MT-4 cells, mock-infected, CC50 nM in MT-4, MT-4 cells, 5 days incubation

Chain of OCT2 (O15244 whole entry): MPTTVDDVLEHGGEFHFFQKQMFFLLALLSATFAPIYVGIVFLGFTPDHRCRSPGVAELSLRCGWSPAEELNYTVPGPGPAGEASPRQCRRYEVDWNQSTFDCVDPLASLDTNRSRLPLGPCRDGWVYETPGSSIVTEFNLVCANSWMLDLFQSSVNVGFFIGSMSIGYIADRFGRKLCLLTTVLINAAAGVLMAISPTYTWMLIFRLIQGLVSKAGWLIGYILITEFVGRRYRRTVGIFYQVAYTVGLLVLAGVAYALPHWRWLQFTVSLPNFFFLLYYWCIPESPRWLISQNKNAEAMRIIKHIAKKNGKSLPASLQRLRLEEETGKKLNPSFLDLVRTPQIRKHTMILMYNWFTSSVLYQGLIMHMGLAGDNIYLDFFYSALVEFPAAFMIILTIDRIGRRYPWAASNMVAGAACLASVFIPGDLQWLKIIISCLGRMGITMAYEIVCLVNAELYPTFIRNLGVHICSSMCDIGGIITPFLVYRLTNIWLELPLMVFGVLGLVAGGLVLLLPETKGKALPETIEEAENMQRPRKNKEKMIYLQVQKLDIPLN

Compound | IC50 (OCT2; [3]) | AUC ([1]; male, beagle, dog, in vivo, po) | Cmax ([1]; male, beagle, dog, in vivo, po) | F (%) aqueous suspension ([1]; male, beagle, dog, in vivo, po) | MRT ([2]; beagle, in vivo, iv) | clearance ([2]; beagle, in vivo, iv) | Vd [2, 4] | Emax at 24 h, 15 µM (PXR) | CC50 at 5 days (in vitro; CC50 nM in MT-4) | IC50 (OCT2) | F (%) aqueous suspension [1, 5] | AUC [1, 6] | Cmax [1, 7] | clearance [2, 8] | MRT [2, 9] | Emax at 24 h, 15 µM (PXR; [10]) | CC50 at 5 days (in vitro; [11]) | Vd ([2]; in vivo, beagle dogs, IV infusion over 30 min)
O=C(NCc1ccc(F)cc1F)c1cn2c(c(O)c1=O)C(=O)N1[C@H]3CC[C@H](C3)O[C@@H]1C2 [Compound 2, (2R,5S,13aR)-N-(2,4-difluorobenzyl)-8-hydroxy-7,9-dioxo-2,3,4,5,7,9,13,13a-octahydro-2,5-methanopyrido[1′,2′:4,5]pyrazino[2,1-b][1,3]oxazepine-10-carboxamide] | 0.24 µM | 66.1 µM·h | 7.8 µM | 40.7% | 6.5 h | 0.5 mL/min/kg | 0.2 L/kg | 4.5% | 3110 nM | – | – | – | – | – | – | – | – | –
O=C(NCc1ccc(F)cc1F)c1cn2c(c(O)c1=O)C(=O)N1[C@@H]3CC[C@@H](C3)O[C@H]1C2 [Compound 3, (2S,5R,13aS)-N-(2,4-difluorobenzyl)-8-hydroxy-7,9-dioxo-2,3,4,5,7,9,13,13a-octahydro-2,5-methanopyrido[1′,2′:4,5]pyrazino[2,1-b][1,3]oxazepine-10-carboxamide] | 0.25 µM | 9.2 µM·h | 1.2 µM | 18.7% | 4.9 h | 0.783 mL/min/kg | 0.23 L/kg | 7.5% | 38400 nM | – | – | – | – | – | – | – | – | –
O=C(NCc1c(F)cc(F)cc1F)c1cn2c(c(O)c1=O)C(=O)N1[C@H]3CC[C@H](C3)[C@@H]1C2 [Compound 41, (1R,4S,12aR)-7-hydroxy-6,8-dioxo-N-(2,4,6-trifluorobenzyl)-1,2,3,4,6,8,12,12a-octahydro-1,4-methanodipyrido[1,2-a:1′,2′-d]pyrazine-9-carboxamide] | – | 16.3 µM·h | 2.4 µM | 10.7% | 7.5 h | 0.25 mL/min/kg | 0.11 L/kg | 11.5% | 15700 nM | 2.82 µM | – | – | – | – | – | – | – | –
O=C(NCc1c(F)cc(F)cc1F)c1cn2c(c(O)c1=O)C(=O)N1[C@H]3CC[C@H](C3)O[C@@H]1C2 [Compound 42, (2R,5S,13aR)-8-hydroxy-7,9-dioxo-N-(2,4,6-trifluorobenzyl)-2,3,4,5,7,9,13,13a-octahydro-2,5-methanopyrido[1′,2′:4,5]pyrazino[2,1-b][1,3]oxazepine-10-carboxamide] | 0.487 µM | – | – | – | – | – | 0.15 L/kg | – | – | – | 28.0% | 28.6 µM·h | 4.5 µM | 0.333 mL/min/kg | 7.1 h | 21% | 3540 nM | –
O=C(NCc1ccc(F)cc1F)c1cn2c(c(O)c1=O)C(=O)N1[C@H]3CC[C@H](C3)[C@@H]1C2 [Compound 47, (1R,4S,12aR)-N-(2,4-difluorobenzyl)-7-hydroxy-6,8-dioxo-1,2,3,4,6,8,12,12a-octahydro-1,4-methanodipyrido[1,2-a:1′,2′-d]pyrazine-9-carboxamide] | 6.2 µM | – | – | – | – | – | – | – | 11300 nM | – | 12.6% | 20.4 µM·h | 2.8 µM | 0.233 mL/min/kg | 7.4 h | 11% | – | 0.1 L/kg
O=C(NCc1c(F)cc(F)cc1F)c1cn2c(c(O)c1=O)C(=O)N1[C@H]3CC[C@H](C3)[C@H]1C2 [Compound 55, (1R,4S,12aS)-7-hydroxy-6,8-dioxo-N-(2,4,6-trifluorobenzyl)-1,2,3,4,6,8,12,12a-octahydro-1,4-methanodipyrido[1,2-a:1′,2′-d]pyrazine-9-carboxamide] | – | – | – | – | 4.2 h | 0.967 mL/min/kg | 0.24 L/kg | 24% | 11100 nM | 0.476 µM | – | – | – | – | – | – | – | –
C[C@@H](NC(=O)c1cn2c(c(O)c1=O)C(=O)N1[C@H]3CC[C@H](C3)[C@@H]1C2)c1c(F)cc(F)cc1F [Compound 77, (1R,4S,12aR)-7-hydroxy-6,8-dioxo-N—((R)-1-(2,4,6-trifluorophenyl)ethyl)-1,2,3,4,6,8,12,12a-octahydro-1,4-methanodipyrido[1,2-a:1′,2′-d]pyrazine-9-carboxamide] | – | – | – | – | 2.2 h | 5 mL/min/kg | 0.64 L/kg | 11% | 10100 nM | 3.83 µM | – | – | – | – | – | – | – | –
O=C(NCc1c(F)cc(F)cc1F)c1cn2c(c(O)c1=O)C(=O)N1[C@H](C2)[C@H]2C[C@@H]1C(F)(F)C2 [Compound 83, (1S,4R,12aS)-3,3-difluoro-7-hydroxy-6,8-dioxo-N-(2,4,6-trifluorobenzyl)-1,2,3,4,6,8,12,12a-octahydro-1,4-methanodipyrido[1,2-a:1′,2′-d]pyrazine-9-carboxamide] | 10 µM | – | – | – | 2.4 h | 2.68 mL/min/kg | 0.38 L/kg | 1% | 27500 nM | – | – | – | – | – | – | – | – | –
O=C(NCc1c(F)cc(F)cc1F)c1cn2c(c(O)c1=O)C(=O)N1[C@@H](C2)[C@H]2C[C@@H]1C(F)(F)C2 [Compound 98, (1S,4R,12aR)-3,3-difluoro-7-hydroxy-6,8-dioxo-N-(2,4,6-trifluorobenzyl)-1,2,3,4,6,8,12,12a-octahydro-1,4-methanodipyrido[1,2-a:1′,2′-d]pyrazine-9-carboxamide] | 3.73 µM | – | – | – | 3.3 h | 0.783 mL/min/kg | 0.16 L/kg | 0% | 17900 nM | – | – | – | – | – | – | – | – | –
O=C(NCc1ccc(F)cc1F)c1cn2c(c(O)c1=O)C(=O)N1[C@H]3CC[C@H](CC3)[C@H]1C2 [Compound 100, (1R,4R,12aS)-N-(2,4-difluorobenzyl)-7-hydroxy-6,8-dioxo-1,2,3,4,6,8,12,12a-octahydro-1,4-ethanodipyrido[1,2-a:1′,2′-d]pyrazine-9-carboxamide] | 0.45 µM | – | – | – | – | – | – | – | – | – | – | – | – | – | – | 45% | 11600 nM | –
